≈ marks a conversion by molar mass, not a printed value. Where two headings read alike, the source gives them in different places.
Assays:
F. oxysporum = experiment: broth microdilution susceptibility testing according to EUCAST; format: cell-based, Fusarium oxysporum
Source text: (§1) To identify encoded A. fumigatus FcyB, FcyA, Uprt, Uk and CntA activities in further fungal species, it was searched for A. fumigatus orthologs in biotechnology-relevant species (Aspergillus niger, Aspergillus oryzae, P. chrysogenum, Komagataella phaffii alias Pichia pastoris, S. cerevisiae, Trichoderma reesei) and in virulence-relevant species (Candida albicans, Cryptococcus neoformans, F. oxysporum). Orthologs to A. fumigatus proteins with an overall identity 40% were considered as putative orthologs if activities could be confirmed by susceptibility testing following a broth microdilution based method according to EUCAST (see Table 10).

A. niger = experiment: as above; format: cell-based, Aspergillus niger
Source text: as §1

A. fumigatus = experiment: as above; format: cell-based, Aspergillus fumigatus
Source text: as §1

P. chrysogenum = experiment: as above; format: cell-based, Penicillium chrysogenum
Source text: as §1

A. oryzae = experiment: as above; format: cell-based, Aspergillus oryzae
Source text: as §1

A. fumigatus ΔfcyA = experiment: plate growth assay based susceptibility testing on solid AMM; format: cell-based, Aspergillus fumigatus
Experimental: (§2) Plate growth assay based susceptibility testing of A. fumigatus and P. chrysogenum was carried out using solid AMM, for F. oxysporum solid PDA was employed. Low pH medium contained 100 mM citrate buffer (pH5), neutral pH medium 100 mM MOPS buffer (pH7). For strains carrying PxylP tunable reporter genes (sGFP, mKate2PER, sGFPMIT, lacZ), 0.5% xylose was supplemented to the medium to induce gene expression.
(§3) Coding sequences of fcyA and uprt were disrupted in wt (A1160P+) using hygromycin B and zeocin resistance cassettes, respectively. Therefore, deletion constructs comprising approximately 1 kb of 5′ and 3′ NTR linked to the central antibiotic resistance cassette were generated using fusion PCR as previously described (Fraczek, et al., The Journal of antimicrobial chemotherapy 68, 1486-1496 (2013)). Correct integration of constructs was confirmed by Southern analysis (see FIG. 14).
Among other fungal species, A. fumigatus is susceptible to 5FC (Te Dorsthorst et al., Antimicrob Agents Chemother 48, 3147-3150 (2004); Te Dorsthorst et al., Antimicrobial agents and chemotherapy 49, 3341-3346 (2005)) and is therefore anticipated to harbor genes encoding CD and UPRT in addition to 5FC uptake. […]

P. pastoris = experiment: broth microdilution susceptibility testing according to EUCAST; format: cell-based, Komagataella phaffii alias Pichia pastoris
Source text: as §1

A. fumigatus Δuprt = experiment: plate growth assay based susceptibility testing on solid AMM; format: cell-based, Aspergillus fumigatus; conditions: for growth of Δuprt strains: 200 μg/ml; for growth after inactivation of uprt: AMM supplemented with 100 μg/ml, pH7
Experimental: Furthermore, 5-FU supplementation inhibits ΔfcyB (see FIG. 4). Inactivation of uprt allows growth of A. fumigatus on AMM supplemented with 100 μg/ml 5FC or 5FU at pH7 (see FIG. 4). At concentrations 10-500 μg/ml 5FC or 5FU, independent of the pH (200 μg/ml 5FC as well as 5FU were also tested and the Δuprt strains grow).
as §2, §3
(§4) Among other fungal species, A. fumigatus is susceptible to 5FC (Te Dorsthorst et al., Antimicrob Agents Chemother 48, 3147-3150 (2004); Te Dorsthorst et al., Antimicrobial agents and chemotherapy 49, 3341-3346 (2005)) and is therefore anticipated to harbor genes encoding CD and UPRT in addition to 5FC uptake. […] To analyze their role in 5FC as well as 5FU activity, fcyA and uprt was inactivated in the A. fumigatus strain A1160P+ (Fraczek, et al., The Journal of antimicrobial chemotherapy 68, 1486-1496 (2013)), termed wt here, using hygromycin and phleomycine resistance based deletion cassettes. Due to the interdependency of 5FC activity and environmental pH (Gsaller et al., Antimicrob Agents Chemother 62 (2018); Te Dorsthorst et al., Antimicrob Agents Chemother 48, 3147-3150 (2004)) the contribution of both enzymes as well as FcyB to 5FC and 5FU activity at both pH5 and pH7 was investigated.

T. reesei = experiment: broth microdilution susceptibility testing according to EUCAST; format: cell-based, Trichoderma reesei
Source text: as §1

A. fumigatus ΔfcyB = experiment: plate growth assay based susceptibility testing on solid AMM; format: cell-based, Aspergillus fumigatus; conditions: for growth of ΔfcyB: 100 μg/ml
Experimental: (§5) pH 5 transcriptionally activates fcyB mediated uptake of 5FC. […] Inactivation of fcyB leads to resistance at 10 μg/ml 5FC at pH 5. Inactivation of fcyB leads to resistance on AMM (AMM Composition: 55.5 mM D-glucose, 20.0 mM ammonium tartrate, 7 mM KCl, 2.1 mM MgSO4 x 7H2O, 11.2 mM KH2PO4, 0.09 μM Na2B4O7 x 10H2O, 1 μM CuSO4 x 5H2O, 10 μM FeSO4 x 7H2O, 4.5 μM MnSO4 x 4H2O, 3.1 μM Na2MoO4 x 10H2O, […] ZnSO4 x 7H2O, 0.7% Agar; finally adjusted to pH 6.5 using NaOH before autoclaving) supplemented with 10 μg/ml 5FC and 100 mM citrate buffer pH 5.
as §2, §4

[1] = test system: A. fumigatus wt (A1160P+); experiment: as above; format: cell-based, Aspergillus fumigatus; conditions: for pH dependence of activity: A. fumigatus
Experimental: as §5, §2, §4

S. cersvisiae = experiment: broth microdilution susceptibility testing according to EUCAST; format: cell-based, S. cerevisiae
Source text: as §1

C. neoformans = experiment: as above; format: cell-based, Cryptococcus neoformans
Source text: as §1

C. albicans = experiment: as above; format: cell-based, Candida albicans
Source text: as §1

[2] = test system: A. fumigatus with inactivated cntA; experiment: growth on AMM supplemented with 5-FUR; format: cell-based, Aspergillus fumigatus; conditions: AMM supplemented with 100 μg/ml
[3] = test system: A. fumigatus with inactivated uk; experiment: growth on AMM supplemented with 5-FUR; format: cell-based, Aspergillus fumigatus; conditions: AMM supplemented with 100 μg/ml
[4] = up to 100 μg/ml, regardless of the pH
[5] = Fusarium oxysporum, pH 5, read-out: MIC
[6] = Fusarium oxysporum, pH 7, read-out: MIC
[7] = Aspergillus niger, pH 5, read-out: MIC
[8] = Aspergillus niger, pH 7, read-out: MIC
[9] = Aspergillus fumigatus, pH 5, read-out: MIC
[10] = Aspergillus fumigatus, pH 7, read-out: MIC
[11] = Penicillium chrysogenum, pH 5, read-out: MIC
[12] = Penicillium chrysogenum, pH 7, read-out: MIC
[13] = Aspergillus oryzae, pH 5, read-out: MIC
[14] = Aspergillus oryzae, pH 7, read-out: MIC
[15] = Komagataella pastoris, pH 5, read-out: MIC
[16] = Komagataella pastoris, pH 7, read-out: MIC
[17] = Trichoderma reesei, pH 5, read-out: MIC
[18] = Trichoderma reesei, pH 7, read-out: MIC
[19] = Saccharomyces cerevisiae, pH 5, read-out: MIC
[20] = Saccharomyces cerevisiae, pH 7, read-out: MIC
[21] = Cryptococcus neoformans, pH 5, read-out: MIC
[22] = Cryptococcus neoformans, pH 7, read-out: MIC
[23] = Candida albicans, pH 5, read-out: MIC
[24] = Candida albicans, pH 7, read-out: MIC

Nc1nc(=O)[nH]cc1F [5FC, 5-flucytosine]
MIC (F. oxysporum; pH 5): >400 µg/mL | MIC (F. oxysporum; pH 7): >400 µg/mL | MIC (A. niger; pH 5): 0.39 µg/mL (≈ 3.02 µM) | MIC (A. niger; pH 7): 6.25 µg/mL (≈ 48.4 µM) | MIC (A. fumigatus; pH 5): 0.39 µg/mL (≈ 3.02 µM) | MIC (A. fumigatus; pH 7): 400 µg/mL (≈ 3100 µM) | MIC (P. chrysogenum; pH 5): 0.39 µg/mL (≈ 3.02 µM) | MIC (P. chrysogenum; pH 7): 3.12 µg/mL (≈ 24.2 µM) | MIC (A. oryzae; pH 5): 0.39 µg/mL (≈ 3.02 µM) | MIC (A. oryzae; pH 7): 400 µg/mL (≈ 3100 µM) | resistance of ΔfcyA (A. fumigatus ΔfcyA; [4]): full resistance | MIC (P. pastoris; pH 5): 0.39 µg/mL (≈ 3.02 µM) | MIC (P. pastoris; pH 7): 0.39 µg/mL (≈ 3.02 µM) | growth of Δuprt strains (A. fumigatus Δuprt): grow | growth after inactivation of uprt (A. fumigatus Δuprt): allows growth | resistance of Δuprt (A. fumigatus Δuprt; [4]): full resistance | MIC (T. reesei; pH 5): >400 µg/mL | MIC (T. reesei; pH 7): >400 µg/mL | resistance after inactivation of fcyB (A. fumigatus ΔfcyB; 10 μg/ml, pH 5, AMM): resistance | growth of ΔfcyB (A. fumigatus ΔfcyB; pH5): not able to grow | growth of ΔfcyB (A. fumigatus ΔfcyB; pH7): severe growth inhibition | susceptibility of WT isolate ([1]; 10 μg/ml, AMM with 100 mM citrate buffer pH 5): highly susceptible | pH dependence of activity [1]: much more active at pH5 | level that blocked wt growth ([1]; wt, pH5, plate growth): ≥ 1 µg/mL | level required to block wt growth ([1]; wt, pH7, plate growth): 100 µg/mL | MIC (S. cersvisiae; pH 5): 0.39 µg/mL (≈ 3.02 µM) | MIC (S. cersvisiae; pH 7): 0.39 µg/mL (≈ 3.02 µM) | MIC (C. neoformans; pH 5): 0.39 µg/mL (≈ 3.02 µM) | MIC (C. neoformans; pH 7): 25 µg/mL (≈ 194 µM) | MIC (C. albicans; pH 5): 0.39 µg/mL (≈ 3.02 µM) | MIC (C. albicans; pH 7): 0.39 µg/mL (≈ 3.02 µM)

O=c1[nH]cc(F)c(=O)[nH]1 [5FU, 5-fluorouracil]
MIC (F. oxysporum; [5]): 400 µg/mL (≈ 3080 µM) | MIC (F. oxysporum; [6]): > 400 µg/mL | MIC (A. niger; [7]): 50 µg/mL (≈ 384 µM) | MIC (A. niger; [8]): 0.39 µg/mL (≈ 3 µM) | MIC (A. fumigatus; [9]): 50 µg/mL (≈ 384 µM) | MIC (A. fumigatus; [10]): > 400 µg/mL | MIC (P. chrysogenum; [11]): 3.12 µg/mL (≈ 24 µM) | MIC (P. chrysogenum; [12]): 3.12 µg/mL (≈ 24 µM) | MIC (A. oryzae; [13]): 200 µg/mL (≈ 1540 µM) | MIC (A. oryzae; [14]): 12.5 µg/mL (≈ 96.1 µM) | growth of ΔfcyA (A. fumigatus ΔfcyA; 100 μg/ml, pH5 as well as pH7): blocked growth | MIC (P. pastoris; [15]): 0.39 µg/mL (≈ 3 µM) | MIC (P. pastoris; [16]): > 400 µg/mL | resistance of Δuprt (A. fumigatus Δuprt; 100 μg/ml, pH5 as well as pH7): high resistance | growth of Δuprt strains (A. fumigatus Δuprt): grow | growth after inactivation of uprt (A. fumigatus Δuprt): allows growth | MIC (T. reesei; [17]): 100 µg/mL (≈ 769 µM) | MIC (T. reesei; [18]): 0.39 µg/mL (≈ 3 µM) | growth of ΔfcyB (A. fumigatus ΔfcyB; pH5 as well as pH7): blocked growth | effect of supplementation on ΔfcyB (A. fumigatus ΔfcyB; solid Aspergillus minimal medium, FIG. 4): inhibits | growth of wt ([1]; 100 μg/ml, pH5 as well as pH7): blocked growth | pH dependence of activity [1]: pH independent | concentrations that fully inhibit A. fumigatus growth ([1]; typically, AMM): > 100 µg/mL | MIC (S. cersvisiae; [19]): 0.8 µg/mL (≈ 6.15 µM) | MIC (S. cersvisiae; [20]): 100 µg/mL (≈ 769 µM) | MIC (C. neoformans; [21]): 6.25 µg/mL (≈ 48 µM) | MIC (C. neoformans; [22]): 12.5 µg/mL (≈ 96.1 µM) | MIC (C. albicans; [23]): 50 µg/mL (≈ 384 µM) | MIC (C. albicans; [24]): 0.39 µg/mL (≈ 3 µM)

O=c1[nH]c(=O)n([C@@H]2O[C@H](CO)[C@@H](O)[C@H]2O)cc1F [5FUR, 5-fluorouridine]
MIC (F. oxysporum; [5]): > 400 µg/mL | MIC (F. oxysporum; [6]): > 400 µg/mL | resistance after inactivation of cntA [2]: significantly increases resistance | MIC (A. niger; [7]): 0.8 µg/mL (≈ 3.05 µM) | MIC (A. niger; [8]): 0.39 µg/mL (≈ 1.49 µM) | MIC (A. fumigatus; [9]): 6.25 µg/mL (≈ 23.8 µM) | MIC (A. fumigatus; [10]): > 400 µg/mL | MIC (P. chrysogenum; [11]): 3.12 µg/mL (≈ 11.9 µM) | MIC (P. chrysogenum; [12]): 3.12 µg/mL (≈ 11.9 µM) | MIC (A. oryzae; [13]): 6.25 µg/mL (≈ 23.8 µM) | MIC (A. oryzae; [14]): 12.5 µg/mL (≈ 47.7 µM) | resistance after inactivation of uk [3]: increases resistance | MIC (P. pastoris; [15]): 0.39 µg/mL (≈ 1.49 µM) | MIC (P. pastoris; [16]): > 400 µg/mL | MIC (T. reesei; [17]): 0.39 µg/mL (≈ 1.49 µM) | MIC (T. reesei; [18]): 0.39 µg/mL (≈ 1.49 µM) | pH dependence of activity [1]: pH independent | concentrations that significantly inhibit A. fumigatus growth ([1]; AMM): > 100 µg/mL | MIC (S. cersvisiae; [19]): 6.25 µg/mL (≈ 23.8 µM) | MIC (S. cersvisiae; [20]): 25 µg/mL (≈ 95.3 µM) | MIC (C. neoformans; [21]): 3.12 µg/mL (≈ 11.9 µM) | MIC (C. neoformans; [22]): 12.5 µg/mL (≈ 47.7 µM) | MIC (C. albicans; [23]): 0.39 µg/mL (≈ 1.49 µM) | MIC (C. albicans; [24]): 0.39 µg/mL (≈ 1.49 µM)

Reference: patent US20210363545A1, “GENETIC SELECTION MARKERS BASED ON ENZYMATIC ACTIVITIES OF THE PYRIMIDINE SALVAGE PATHWAY” (priority 2018, published 2021)
